# Tests used:
# Type in all cases: cell-based
# [1] = system: MCF7 cells; assay: Transfection of MCF7 cell line, mRNA vectors; details: 50 ng EGFP mRNA per well
# Procedure, shortened: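 MCF7 cells in DMEM with fetal bovine serum were transfected with 50 ng EGFP mRNA per well. Read-out was the percentage of GFP-positive cells among total Hoechst-stained nuclei, with Lipofectamine2000 as positive control.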
# [2] = system: HEK293 cells; assay: Preliminary screening as DNA vectors, GFP transfection of HEK293 cells; details: HEK293 cells; lipid/DOPE liposome with 75 ng plasmid DNA (psin-EGFP-IRES-Puro); number of cells expressing GFP divided by total number of nuclei (Hoechst)
# Procedure, shortened: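 Lipid + DOPE liposomes (NaOAc, pH 5.6) complexed w/ 75 ng psin-EGFP-IRES-Puro, 30 min RT; added to 3-5×10^4 HEK293/well, 37° C. Hoechst 0.2 μg/mL at 20-24 h, imaged after further 20-24 h. Efficiency = GFP+ cells / total nuclei.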
# [3] = system: embryonic stem cells (hESC2); assay: Screening as mRNA vectors in embryonic stem cells; details: 50 ng EGFP mRNA per well
# Procedure, shortened: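 EGFP mRNA (50 ng per well) transfected into hESC2 cells grown in mTeSR1; Lipofectamine Stem served as positive control. Read-out: GFP-fluorescent cells as percentage of total cells.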
# [4] = system: Hela cells; assay: Transfection of Hela cell line, mRNA vectors; details: 50 ng EGFP mRNA per well
# Procedure, shortened: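 HeLa cells in DMEM with 10% FBS transfected with 50 ng EGFP mRNA per well. Readout is percentage of GFP-positive cells among total cells counted by Hoechst nuclear stain; Lipofectamine2000 served as positive control.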
# [5] = system: MCF7 cells; assay: Transfection of MCF7 cell line, DNA vectors; set-up: concentration or dose not given beside the values; details: plasmid DNA, GFP cells / total cells
# Procedure, shortened: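 MCF7 cells in DMEM with fetal bovine serum were transfected in 96-well format. Read-out was the percentage of GFP-fluorescent cells among total cells counted by Hoechst nuclear stain. Lipofectamine2000 served as positive control.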
# [6] = system: cardiomyocytes; assay: Screening as mRNA vectors in cardiomyocytes; details: 50 ng EGFP mRNA per well
# Procedure, shortened: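 Cardiomyocytes differentiated from hESC, in DMEM with 10% FBS, were transfected with 50 ng EGFP mRNA per well. The read-out was GFP-positive cells as a percentage of Hoechst-stained nuclei, with Lipofectamine Stem as positive control.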
# [7] = system: Hela cells; assay: Transfection of Hela cell line, DNA vectors; details: 75 ng plasmid DNA, GFP cells / total cells
# Procedure, shortened: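 Amino lipid/DOPE liposomes in sodium acetate pH 5.6 were complexed with 75 ng psin-EGFP-IRES-Puro plasmid for 30 min at room temperature, then mixed with 3-5×10^4 Hela cells in DMEM/10% FBS at 37° C. Hoechst stain after 20-24 h, imaging after a further 20-24 h. Efficiency = GFP-positive cells / total nuclei.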
# [8] = system: cardiomyocytes; assay: Screening as DNA vectors in cardiomyocytes; set-up: concentration or dose not given beside the values; details: method as Example 4
# Procedure, shortened: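 hESC-derived cardiomyocytes in DMEM with 10% FBS were transfected with a GFP DNA vector; Lipofectamine Stem served as positive control. Read-out: percentage of GFP-positive cells relative to total cells counted by Hoechst nuclear stain.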
# [9] = system: HEK293 cells; assay: Preliminary screening as mRNA vectors, EGFP mRNA transfection of HEK293 cells; details: HEK293 cells, 96-well plates, EGFP mRNA 50 ng per well; percentage of GFP fluorescent cells relative to total number of cells (Hoechst)
# Procedure, shortened: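 Each well of HEK293 cells received 50 ng of EGFP mRNA. Efficiency was expressed as percent GFP-expressing cells over Hoechst-defined total cell number.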
# [10] = system: embryonic stem cells (hESC2); assay: Screening as DNA vectors in embryonic stem cells, flow cytometry; details: 75 ng plasmid DNA, 48 hours after transfection, flow cytometer
# Procedure, shortened: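 hESC2 cells in mTeSR1 on matrigel transfected with 75 ng pSin-EGFP-IRES-Puro complexed with amino lipid/DOPE liposomes formed in sodium acetate pH 5.6; 37 °C, 5% CO2. After 48 h, GFP-positive cells counted by flow cytometry (≥2000 cells), efficiency also expressed relative to Lipofectamine Stem.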
SMILES,Absolute mRNA transfection efficiency in MCF7 cells [1] [%],Absolute DNA transfection efficiency in HEK293 cells [2] [%],Absolute mRNA transfection efficiency in embryonic stem cells [3] [%],Absolute mRNA transfection efficiency in Hela cells [4] [%],Absolute DNA transfection efficiency in MCF7 cells [5] [%],Absolute mRNA transfection efficiency in cardiomyocytes [6] [%],Absolute DNA transfection efficiency in Hela cells [7] [%],Absolute DNA transfection efficiency in cardiomyocytes [8] [%],Absolute mRNA transfection efficiency in HEK293 cells [9] [%],Absolute DNA transfection efficiency in embryonic stem cells [10] [%]
CCCCCCCCCCCCSc1nc(NCCCN2CCN(C)CC2)nc(SCCCCCCCCC)n1 [Compound S9S12D9],5.1,39.3,20.6,19.6,33.8,69.3,19.6,5.9,60.9,7.6
CCCCCCCCCCCCCCCSc1nc(NCCCN(C)C)nc(SCCCCCCCCC)n1 [Compound S9S15D6],47.3,47.4,2.5,23.7,48.4,12.9,23.7,6.9,87.2,3.7
CCCCCCCCCCCCSc1nc(NCCCN(C)C)nc(SCCCCCCCCC)n1 [Compound S9S12D6],50.4,20.2,9.3,10.9,34.2,9.5,10.9,3.3,61.6,10.5
CCCCCCCCCCCCCCCSc1nc(NCCN2CCN(C)CC2)nc(SCCCCCCCCC)n1 [Compound S9S15D5],27.0,8.9,33.4,4.4,23.0,1.9,4.4,12.8,41.3,6.2
CCCCCCCCCCCCCCCSc1nc(NCCCN2CCN(C)CC2)nc(SCCCCCCCCC)n1 [Compound S9S15D9],27.6,25.3,13.3,12.6,22.5,7.1,12.6,1.3,40.4,21.6
CCCCCCCCCCCCCCSc1nc(NCCCN2CCOCC2)nc(SCCCCCCCCC)n1 [Compound S9S14D8],14.8,21.0,0.3,10.8,6.4,1.0,10.8,6.1,11.6,0.7
CCCCCCCCCCCNc1nc(NCCN2CCN(C)CC2)nc(SCCCCCCCCC)n1 [Compound S9N11D5],18.0,–,3.3,22.5,17.8,18.0,22.5,2.5,–,3.0
CCCCCCCCCCCSc1nc(NCCCCCCCC)nc(NCCCN(C)C)n1 [Compound S11N8D6],11.0,–,2.0,18.4,9.3,7.9,18.4,6.7,–,1.7
CCCCCCCCCCCNc1nc(NCC2CCN(C)CC2)nc(SCCCCCCCC)n1 [Compound S8N11D10],4.4,–,0.7,23.4,45.3,16.8,23.4,6.6,–,0.7
CCCCCCCCCCCSc1nc(NCCCCCCCCC)nc(NCC2CCN(C)CC2)n1 [Compound S11N9D10],36.6,–,39.3,16.2,48.7,29.6,16.2,16.4,–,0.5
CCCCCCCCCCCNc1nc(NCC2CCN(C)CC2)nc(SCCCCCCCCC)n1 [Compound S9N11D10],20.2,–,2.6,21.3,36.6,45.3,21.2,2.7,–,2.2
CCCCCCCCCCCSc1nc(NCCCCCCCC)nc(NCCCN2CCOCC2)n1 [Compound S11N8D8],7.8,–,1.3,6.1,0.1,0.9,6.1,1.2,–,0.0
CCCCCCCCCCCSc1nc(NCCCCCCCC)nc(NCCN2CCCC2)n1 [Compound S11N8D3],8.6,–,12.8,12.9,17.7,24.5,12.9,0.2,–,4.3
CCCCCCCCCCCCSc1nc(NCCN2CCCC2)nc(SCCCCCCCC)n1 [Compound S8S12D3],6.7,–,17.9,5.5,1.9,36.7,5.5,0.3,–,1.5
